Experimental data taken from ChEMBL document CHEMBL1909046, “DrugMatrix in vitro pharmacology data”.

What was measured:
[1] = target: C-C chemokine receptor type 5 (Homo sapiens, UniProt P51681); format: cell membranes, Membrane; conditions: hek293; further: in other assays of this panel Not Active means under 50% inhibition at 10 µM
[2] = target: T1, Progesterone receptor (Bos taurus, UniProt Q690N0); assay: DRUGMATRIX: Progesterone radioligand binding (ligand: [3H] R-5020); format: tissue-based, Uterus; conditions: Not Active = under 50% inhibition at 10 µM; for Ki: read-out: Ki
T1 sequence (Q690N0 whole entry): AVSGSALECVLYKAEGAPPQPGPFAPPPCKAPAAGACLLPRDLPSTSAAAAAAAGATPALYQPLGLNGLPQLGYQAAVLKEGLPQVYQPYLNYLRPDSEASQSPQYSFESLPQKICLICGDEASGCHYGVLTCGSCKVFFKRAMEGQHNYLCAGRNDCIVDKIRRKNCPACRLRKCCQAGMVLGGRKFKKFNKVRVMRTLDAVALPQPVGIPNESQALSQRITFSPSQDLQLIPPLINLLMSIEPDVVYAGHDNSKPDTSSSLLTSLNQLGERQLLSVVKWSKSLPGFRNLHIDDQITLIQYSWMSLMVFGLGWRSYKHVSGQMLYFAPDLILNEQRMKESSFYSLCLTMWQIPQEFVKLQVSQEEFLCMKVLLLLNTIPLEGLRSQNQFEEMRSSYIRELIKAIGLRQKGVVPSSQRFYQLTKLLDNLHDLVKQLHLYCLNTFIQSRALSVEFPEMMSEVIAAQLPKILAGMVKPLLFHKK

[3] = target: Mitogen-activated protein kinase 3 (Homo sapiens, UniProt P27361); assay: DRUGMATRIX: Protein Serine/Threonine Kinase, ERK1 enzyme inhibition (substrate: Myelin Basic Protein); design: species or system Escherichia coli; conditions: Not Active = under 50% inhibition at 10 µM
Mitogen-activated protein kinase 3, sequence (P27361 whole entry): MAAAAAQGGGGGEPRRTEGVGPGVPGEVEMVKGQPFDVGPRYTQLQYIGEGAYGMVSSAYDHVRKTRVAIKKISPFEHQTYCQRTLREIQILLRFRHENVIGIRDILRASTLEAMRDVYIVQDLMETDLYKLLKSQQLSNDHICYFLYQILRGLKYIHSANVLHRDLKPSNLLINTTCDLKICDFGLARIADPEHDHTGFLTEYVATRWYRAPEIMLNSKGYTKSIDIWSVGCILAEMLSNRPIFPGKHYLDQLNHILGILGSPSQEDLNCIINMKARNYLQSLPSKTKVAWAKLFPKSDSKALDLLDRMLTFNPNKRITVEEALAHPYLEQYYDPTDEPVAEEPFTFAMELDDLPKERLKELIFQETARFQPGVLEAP

[4] = target: T2, B2 bradykinin receptor (Homo sapiens, UniProt P30411); format: cell membranes, Membrane; conditions: chem-1; further: in other assays of this panel Not Active means under 50% inhibition at 10 µM
T2 sequence (P30411 whole entry): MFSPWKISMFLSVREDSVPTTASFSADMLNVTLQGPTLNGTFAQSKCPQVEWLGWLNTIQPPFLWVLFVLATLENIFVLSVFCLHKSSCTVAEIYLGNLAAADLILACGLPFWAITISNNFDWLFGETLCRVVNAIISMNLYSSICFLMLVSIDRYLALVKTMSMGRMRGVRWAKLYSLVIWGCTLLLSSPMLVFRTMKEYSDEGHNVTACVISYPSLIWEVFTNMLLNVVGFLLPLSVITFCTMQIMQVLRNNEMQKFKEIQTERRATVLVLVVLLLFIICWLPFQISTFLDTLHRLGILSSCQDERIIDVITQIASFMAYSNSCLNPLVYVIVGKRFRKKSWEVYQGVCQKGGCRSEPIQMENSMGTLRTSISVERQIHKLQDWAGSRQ

[5] = target: Cytochrome P450 3A4 (Homo sapiens, UniProt P08684); conditions: bti-tn-5b1-4; further: in other assays of this panel Not Active means under 50% inhibition at 10 µM
Cytochrome P450 3A4, sequence (P08684 whole entry): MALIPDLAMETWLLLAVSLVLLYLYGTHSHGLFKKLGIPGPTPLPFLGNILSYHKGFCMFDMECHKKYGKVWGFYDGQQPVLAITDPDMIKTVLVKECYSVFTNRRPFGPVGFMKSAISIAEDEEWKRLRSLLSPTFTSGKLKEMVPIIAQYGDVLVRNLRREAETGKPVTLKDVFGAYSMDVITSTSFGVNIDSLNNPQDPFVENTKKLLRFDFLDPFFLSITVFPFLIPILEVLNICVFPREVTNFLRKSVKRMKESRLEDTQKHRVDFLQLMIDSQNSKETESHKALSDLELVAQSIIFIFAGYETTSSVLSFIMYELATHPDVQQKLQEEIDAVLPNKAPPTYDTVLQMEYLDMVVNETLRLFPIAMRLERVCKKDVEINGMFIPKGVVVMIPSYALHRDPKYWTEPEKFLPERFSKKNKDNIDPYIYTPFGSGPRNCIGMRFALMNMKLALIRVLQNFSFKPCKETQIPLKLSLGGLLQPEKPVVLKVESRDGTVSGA

[6] = target: T3, Estrogen receptor (Homo sapiens, UniProt P03372); conditions: sf9; further: in other assays of this panel Not Active means under 50% inhibition at 10 µM
T3 sequence (P03372 whole entry): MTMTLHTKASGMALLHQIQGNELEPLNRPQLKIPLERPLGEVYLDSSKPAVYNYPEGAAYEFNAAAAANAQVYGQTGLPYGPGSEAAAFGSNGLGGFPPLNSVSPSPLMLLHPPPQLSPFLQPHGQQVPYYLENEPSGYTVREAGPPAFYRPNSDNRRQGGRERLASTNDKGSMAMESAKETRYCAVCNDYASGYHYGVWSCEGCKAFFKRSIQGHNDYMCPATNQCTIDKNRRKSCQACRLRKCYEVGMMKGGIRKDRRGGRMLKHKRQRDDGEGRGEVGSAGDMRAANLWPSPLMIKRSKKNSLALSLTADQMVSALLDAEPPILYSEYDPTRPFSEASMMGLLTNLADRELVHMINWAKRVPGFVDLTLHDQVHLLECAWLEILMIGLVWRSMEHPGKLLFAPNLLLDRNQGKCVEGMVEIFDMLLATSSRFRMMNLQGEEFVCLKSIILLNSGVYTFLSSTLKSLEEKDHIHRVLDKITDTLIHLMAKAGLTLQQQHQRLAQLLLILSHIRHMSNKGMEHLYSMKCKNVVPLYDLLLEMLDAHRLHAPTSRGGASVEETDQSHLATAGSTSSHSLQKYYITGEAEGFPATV

C-C chemokine receptor type 5, sequence (P51681 whole entry): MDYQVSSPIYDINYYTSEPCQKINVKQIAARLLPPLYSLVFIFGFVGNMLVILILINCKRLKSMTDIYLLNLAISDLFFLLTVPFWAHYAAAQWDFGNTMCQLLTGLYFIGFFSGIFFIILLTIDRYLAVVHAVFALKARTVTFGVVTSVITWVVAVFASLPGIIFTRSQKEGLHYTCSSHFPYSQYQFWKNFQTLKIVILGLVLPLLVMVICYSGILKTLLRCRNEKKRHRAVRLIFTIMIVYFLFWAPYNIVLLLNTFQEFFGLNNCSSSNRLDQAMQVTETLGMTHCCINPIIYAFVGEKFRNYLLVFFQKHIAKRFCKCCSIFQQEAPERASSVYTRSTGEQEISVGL

Row | SMILES | IC50 [1] | IC50 [2] | IC50 [3] | IC50 [4] | IC50 [5] | Ki [5] | IC50 [6] | IC50 ([2]; read-out: IC50) | Ki [2]
1 | COCCc1ccc(OCC(O)CNC(C)C)cc1 (centres undefined) [METOPROLOL] | Not Active | Not Active | Not Active | Not Active | Not Active | Not Active |  |  | 
2 | COc1cc2nc(N3CCN(C(=O)C4COc5ccccc5O4)CC3)nc(N)c2cc1OC (centres undefined) [DOXAZOSIN] | Not Active | Not Active | Not Active | Not Active |  |  |  |  | 
3 | NCCCCCC(=O)O [AMINOCAPROIC ACID] | Not Active | Not Active | Not Active | Not Active | Not Active | Not Active | Not Active |  | 
4 | c1ccc(Nc2ccc(Nc3ccccc3)cc2)cc1 | Not Active | Not Active | Not Active | Not Active | Not Active | Not Active | Not Active |  | 
5 | Cc1ccc2cc3c(ccc4ccccc43)c3c2c1CC3 [3-METHYLCHOLANTHRENE] | Not Active | Not Active | Not Active | Not Active | Not Active | Not Active | Not Active |  | 
6 | Nc1nc2c(ncn2CCC(CO)CO)c(=O)[nH]1 [PENCICLOVIR] | Not Active | Not Active | Not Active | Not Active | Not Active | Not Active | Not Active |  | 
7 | CC1Cc2ccccc2N1NC(=O)c1ccc(Cl)c(S(N)(=O)=O)c1 (centres undefined) [INDAPAMIDE] | Not Active | Not Active | Not Active | Not Active | Not Active | Not Active | Not Active |  | 
8 | CC(NC(C)(C)C)C(=O)c1cccc(Cl)c1 (centres undefined) [BUPROPION] | Not Active | Not Active | Not Active | Not Active | Not Active | Not Active |  |  | 
9 | COc1cc2c3cc1Oc1cc(ccc1O)C[C@@H]1c4c(cc(OC)c(O)c4Oc4ccc(cc4)C[C@@H]3N(C)CC2)CC[N+]1(C)C.[Cl-] | Not Active | Not Active | Not Active | Not Active | Not Active | Not Active |  |  | 
10 | CCC(C)n1ncn(-c2ccc(N3CCN(c4ccc(OCC5COC(Cn6cncn6)(c6ccc(Cl)cc6Cl)O5)cc4)CC3)cc2)c1=O (centres undefined) [ITRACONAZOLE] | Not Active | Not Active | Not Active | Not Active |  |  | Not Active |  | 
11 | Cc1onc(-c2ccccc2Cl)c1C(=O)N[C@@H]1C(=O)N2[C@@H]1SC(C)(C)[C@@H]2C(=O)O [CLOXACILLIN] | Not Active | Not Active | Not Active | Not Active | Not Active | Not Active | Not Active |  | 
12 | CCn1cc(C(=O)O)c(=O)c2cc(F)c(N3CCNCC3)cc21 [NORFLOXACIN] | Not Active | Not Active | Not Active | Not Active | Not Active | Not Active | Not Active |  | 
13 | Cc1ccc(/N=C/N(C)/C=N/c2ccc(C)cc2C)c(C)c1 [AMITRAZ] | Not Active | Not Active | Not Active | Not Active | Not Active | Not Active | Not Active |  | 
14 | CNNCc1ccc(C(=O)NC(C)C)cc1 [PROCARBAZINE] | Not Active | Not Active | Not Active | Not Active | Not Active | Not Active |  |  | 
15 | CN(C)c1nc(N(C)C)nc(N(C)C)n1 [ALTRETAMINE] | Not Active |  | Not Active | Not Active |  |  |  |  | 
16 | N=C(N)NCCN1CCCCCCC1 [GUANETHIDINE] | Not Active | Not Active | Not Active | Not Active |  |  | Not Active |  | 

Row | SMILES | IC50 [1] | IC50 [2] | IC50 [3] | IC50 [4] | IC50 [5] | Ki [5] | IC50 [6] | IC50 ([2]; read-out: IC50) | Ki [2]
17 | CN(C)CCCN1c2ccccc2Sc2ccc(Cl)cc21 [CHLORPROMAZINE] | Not Active | Not Active | Not Active | Not Active |  |  |  |  | 
18 | NC1=NC(=O)C(c2ccccc2)O1 (centres undefined) [PEMOLINE] | Not Active | Not Active | Not Active | Not Active | Not Active | Not Active |  |  | 
19 | C[C@H]1c2cccc(O)c2C(=O)C2=C(O)[C@]3(O)C(=O)C(C(N)=O)=C(O)[C@@H](N(C)C)[C@@H]3[C@@H](O)[C@@H]21.O [DOXYCYCLINE] | Not Active | Not Active | Not Active | Not Active | Not Active | Not Active |  |  | 
20 | C[C@]12CC[C@@H]3c4ccc(O)cc4CC[C@H]3[C@@H]1CCC2=O [ESTRONE] | Not Active |  | Not Active | Not Active |  |  |  | 16.1 µM | 2.1 µM
21 | CNCCc1ccccn1 [BETAHISTINE] | Not Active | Not Active | Not Active | Not Active | Not Active | Not Active |  |  | 
22 | Cc1ccccc1N1C(=O)c2cc(S(N)(=O)=O)c(Cl)cc2NC1C (centres undefined) [METOLAZONE] | Not Active | Not Active | Not Active | Not Active | Not Active | Not Active |  |  | 
23 | O=C1CC[C@@H](N2C(=O)c3ccccc3C2=O)C(=O)N1 | Not Active | Not Active | Not Active | Not Active | Not Active | Not Active |  |  | 
24 | CN(C)CCCN1c2ccccc2Sc2ccccc21 [PROMAZINE] | Not Active | Not Active | Not Active | Not Active |  |  |  |  | 
25 | O=c1[nH]c(=O)n([C@H]2C[C@H](O)[C@@H](CO)O2)cc1I [IDOXURIDINE] | Not Active | Not Active | Not Active | Not Active | Not Active | Not Active |  |  | 
26 | CC1(C)S[C@@H]2[C@H](NC(=O)Cc3ccccc3)C(=O)N2[C@H]1C(=O)O [PENICILLIN G] | Not Active | Not Active | Not Active | Not Active |  |  | Not Active |  | 
27 | CC(=O)O[C@@]12CO[C@@H]1C[C@H](O)[C@@]1(C)C(=O)[C@H](O)C3=C(C)[C@@H](OC(=O)[C@H](O)[C@@H](NC(=O)OC(C)(C)C)c4ccccc4)C[C@@](O)([C@@H](OC(=O)c4ccccc4)[C@H]21)C3(C)C.O.O.O [DOCETAXEL] | Not Active | Not Active | Not Active | Not Active |  |  |  |  | 
28 | C[C@](N)(Cc1ccc(O)c(O)c1)C(=O)O [METHYLDOPA] | Not Active | Not Active | Not Active | Not Active | Not Active | Not Active |  |  | 
29 | Nc1nc(N)nc(-c2cc(Cl)ccc2Cl)n1.O=C(O)/C=C\C(=O)O [IRSOGLADINE MALEATE] | Not Active | Not Active | Not Active | Not Active | Not Active | Not Active |  |  | 
30 | CC(C)(Oc1ccc(Cl)cc1)C(=O)O [CLOFIBRIC ACID] | Not Active | Not Active | Not Active | Not Active |  |  |  |  | 
31 | CCCC1O[C@@H]2C[C@H]3[C@@H]4CCC5=CC(=O)C=C[C@]5(C)[C@H]4[C@@H](O)C[C@]3(C)[C@]2(C(=O)CO)O1 (some centres undefined) [BUDESONIDE] | Not Active |  | Not Active | Not Active | Not Active | Not Active |  | 0.21 µM | 0.027 µM
32 | Clc1cccc(Cl)c1NC1=NCCN1 [CLONIDINE] | Not Active | Not Active | Not Active | Not Active | Not Active | Not Active |  |  | 
